Data: PMC4506051, “Pharmacokinetic Profiles of Active Ingredients and Its Metabolites Derived from Rikkunshito, a Ghrelin Enhancer, in Healthy Japanese Volunteers: A Cross-Over, Randomized Study” (PLoS ONE, 2015)

Legend:
[1] = Method validation: post-preparative stability (autosampler); details: autosampler set at 4°C
[2] = Dose proportionality (linearity) test by power model for C max and AUC0-last; details: for Dose proportionality test using power model, Inference: linear when 90% CI of β included 1, CIlower ≥0.8, and CIupper ≤1.25; for Dose proportionality test using power model, β: rikkunshito 2.5, 5.0 or 7.5 g
Procedure: The dose proportionality was analyzed via a power model [21, 22]. […] Evaluation of linearity of the dosage-exposure relationship was conducted with Phoenix WinNonlin and SAS 9.2 (SAS Institute, Inc., Cary, NC).

[3] = Method validation: long-term stability in plasma
[4] = Method validation: short-term stability in plasma
[5] = Stability of ingredients in gastric pH solution (pH 1.2, 37°C); assay type: physicochemical; details: pH 1.2
Procedure: Rikkunshito gradually dissolved in acidic solution (pH 1.2) at 37°C, and the concentration of atractylodin after adding 0.25, 0.5, 1, and 2 h was measured by gas chromatography–mass spectrometry.

[6] = 7.5 g dosage; cited from earlier work
[7] = Method validation: freeze-thaw stability in plasma; details: −30°C to −10°C, 3 cycles
[8] = Method validation: stability in standard, stock and working solution; details: for Stock solution stability, RR: 0.1 mg/mL (naringenin 0.5 mg/mL)
[9] = Randomized crossover quantitative trial: plasma pharmacokinetics of nine ingredients after rikkunshito 2.5, 5.0 or 7.5 g; details: for AUC(0-t) / Cmax / Tmax / half-life: human, plasma, po; for AUC(0-t): AUC0-last; for AUC(0-t) / Cmax / half-life / t 1/2: geometric mean (95% CI); for Cmax: C max; for Tmax: Median t max (range); for Tmax / Median t max (range): median (minimum–maximum)
How it was run: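 Healthy Japanese adults (20–45 y, BMI 18–25), fasted 12 h before and 4 h after dosing, received single oral rikkunshito 2.5, 5.0 or 7.5 g in a randomized open-label three-period crossover. Plasma sampled 0–48 h; ingredients quantified by LC–MS/MS or GC–MS.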

[10] = Method validation: stability in blood
[11] = 48 h, higher concentration (800 / 320 / 4000 pg/mL)
[12] = 48 h, lower concentration (20 / 8 / 100 pg/mL)
[13] = room temperature (1°C to 30°C) 4 h, higher concentration (800 / 320 / 4000 pg/mL)
[14] = room temperature (1°C to 30°C) 4 h, lower concentration (20 / 8 / 100 pg/mL)
[15] = higher concentration (800 / 320 / 4000 pg/mL)
[16] = lower concentration (20 / 8 / 100 pg/mL)
[17] = refrigerator 128 days, higher concentration (10 / 4 / 50 ng/mL)
[18] = refrigerator 128 days, lower concentration (0.1 / 0.04 / 0.5 ng/mL)
[19] = refrigerator (1°C to 8°C) 54 days
[20] = refrigerator (1°C to 8°C) 129 days
[21] = 2.5 g, rikkunshito 2.5 g single oral, n = 21
[22] = 5 g, rikkunshito 5.0 g single oral, n = 19
[23] = 5 g, t 1/2, rikkunshito 5.0 g single oral, n = 19
[24] = 7.5 g, rikkunshito 7.5 g single oral, n = 19
[25] = rikkunshito 7.5 g single oral, n = 19
[26] = on ice 2 h, higher concentration (800 / 320 / 4000 pg/mL)
[27] = on ice 2 h, lower concentration (20 / 8 / 100 pg/mL)

COc1ccc(-c2oc3c(OC)c(OC)c(OC)c(OC)c3c(=O)c2OC)cc1OC [Heptamethoxyflavone, 3,3′,4′,5,6,7,8-heptamethoxyflavone]
Post-preparative stability, RR ([1]; 24 h, higher concentration (pachymic acid 800, heptamethoxyflavone 320 pg/mL)): 86.3%
Post-preparative stability, RR ([1]; 24 h, lower concentration (pachymic acid 20, heptamethoxyflavone 8 pg/mL)): 100.3%
Post-preparative stability, RR [1, 11]: 90.8%
Post-preparative stability, RR [1, 12]: 96.5%
Dose proportionality test using power model, Inference ([2]; AUC0-last): Nonlinear
Dose proportionality test using power model, β ([2]; AUC0-last): 0.804
Dose proportionality test using power model, Inference ([2]; Cmax): Nonlinear
Dose proportionality test using power model, β ([2]; Cmax): 0.817
Long-term stability, RR ([3]; freezer −30°C to −10°C, 13 days, lower concentration (pachymic acid 20, heptamethoxyflavone 8 pg/mL)): 90.3%
Long-term stability, RR ([3]; freezer, 13 days, higher concentration (pachymic acid 800, heptamethoxyflavone 320 pg/mL)): 113.1%
Long-term stability, RR ([3]; freezer, 39 days, higher concentration (800 / 320 pg/mL)): 99.7%
Long-term stability, RR ([3]; freezer, 39 days, lower concentration (20 / 8 pg/mL)): 85.5%
Long-term stability, RR ([3]; freezer, 228 days, higher concentration (800 / 320 pg/mL)): 87.5%
Long-term stability, RR ([3]; freezer, 228 days, lower concentration (20 / 8 pg/mL)): 85.0%
Short-term stability, RR ([4]; room temperature 25 h, higher concentration (pachymic acid 800, heptamethoxyflavone 320 pg/mL)): 91.2%
Short-term stability, RR ([4]; room temperature 25 h, lower concentration (pachymic acid 20, heptamethoxyflavone 8 pg/mL)): 90.3%
Short-term stability, RR [4, 13]: 103.3%
Short-term stability, RR [4, 14]: 99.5%
Stability in gastric pH solution, Quantitative value ([5]; 0.5 h): 25.5 ng/mL
Stability in gastric pH solution, Quantitative value ([5]; 1 h): 30.7 ng/mL
Stability in gastric pH solution, Quantitative value ([5]; 2 h): 28.7 ng/mL
Maximum plasma concentration in the preliminary pharmacokinetics study [6]: 0.253 ± 0.301 ng/mL
Freeze-thaw stability, RR [7, 15]: 113.5%
Freeze-thaw stability, RR [7, 16]: 107.1%
Working solution stability, RR ([8]; refrigerator 53 days, higher concentration (pachymic acid 10, heptamethoxyflavone 4, naringenin 50 ng/mL)): 100.4%
Working solution stability, RR ([8]; refrigerator 53 days, lower concentration (pachymic acid 0.1, heptamethoxyflavone 0.04, naringenin 0.5 ng/mL)): 109.3%
Working solution stability, RR [8, 17]: 98.8%
Working solution stability, RR [8, 18]: 101.6%
Stock solution stability, RR [8, 19]: 54 days: 98.7%
Stock solution stability, RR [8, 20]: 129 days: 92.7%
AUC(0-t) [9, 21]: 0.0849 ng·h/mL
Cmax [9, 21]: 0.0388 ng/mL
Tmax [9, 21]: 0.5 h
half-life ([9]; 2.5 g, t 1/2, rikkunshito 2.5 g single oral, n = 21): 1.92 h
AUC(0-t) [9, 22]: 0.124 ng·h/mL
Cmax [9, 22]: 0.0582 ng/mL
Tmax [9, 22]: 1 h
half-life [9, 23]: 1.5 h
AUC(0-t) [9, 24]: 0.225 ng·h/mL
Cmax [9, 24]: 0.105 ng/mL
Tmax [9, 24]: ≤ 1 h
t 1/2 [9, 25]: 1.51 (1.15–1.98) h
t 1/2 ([9]; rikkunshito 7.5 g single oral, n = 19, listed as heptamethoxyflavone): < 10 h
Median t max (range) [9, 25]: 1.00 (0.250–1.02) h
Stability in blood, RR [10, 26]: 92.3%
Stability in blood, RR [10, 27]: 97.5%
Stability in blood, RR ([10]; room temperature 2 h, higher concentration (pachymic acid 800, heptamethoxyflavone 320, naringenin 4000 pg/mL)): 96.0%
Stability in blood, RR ([10]; room temperature 2 h, lower concentration (pachymic acid 20, heptamethoxyflavone 8, naringenin 100 pg/mL)): 107.1%

O=C1C[C@@H](c2ccc(O)cc2)Oc2cc(O)cc(O)c21 [Naringenin]
Post-preparative stability, RR [1, 11]: 87.1%
Post-preparative stability, RR [1, 12]: 85.6%
Post-preparative stability, RR ([1]; naringenin 100 pg/mL, 25 h as printed in the cell): 91.7%
Post-preparative stability, RR ([1]; naringenin 4000 pg/mL, 25 h as printed in the cell): 96.7%
Dose proportionality test using power model, Inference ([2]; AUC0-last): Nonlinear
Dose proportionality test using power model, β ([2]; AUC0-last): 1.02
Dose proportionality test using power model, Inference ([2]; Cmax): Nonlinear
Dose proportionality test using power model, β ([2]; Cmax): 1.06
Long-term stability, RR ([3]; naringenin 100 pg/mL, freezer −30°C to −10°C, 22 days): 101.9%
Long-term stability, RR ([3]; naringenin 100 pg/mL, freezer, 31 days): 98.1%
Long-term stability, RR ([3]; naringenin 100 pg/mL, freezer, 220 days): 86.8%
Long-term stability, RR ([3]; naringenin 4000 pg/mL, freezer, 22 days): 95.8%
Long-term stability, RR ([3]; naringenin 4000 pg/mL, freezer, 31 days): 95.8%
Long-term stability, RR ([3]; naringenin 4000 pg/mL, freezer, 220 days): 85.2%
Short-term stability, RR ([4]; naringenin 100 pg/mL, room temperature, 24 h as printed in the cell): 113.8%
Short-term stability, RR ([4]; naringenin 4000 pg/mL, room temperature, 24 h as printed in the cell): 112.2%
Short-term stability, RR [4, 13]: 92.8%
Short-term stability, RR [4, 14]: 102.1%
Stability in gastric pH solution, Quantitative value ([5]; 0.5 h): 2030 ng/mL
Stability in gastric pH solution, Quantitative value ([5]; 1 h): 2140 ng/mL
Stability in gastric pH solution, Quantitative value ([5]; 2 h): 1990 ng/mL
Maximum plasma concentration in the preliminary pharmacokinetics study [6]: 0.162 ± 0.0392 ng/mL
Freeze-thaw stability, RR [7, 15]: 96.7%
Freeze-thaw stability, RR [7, 16]: 90.6%
Working solution stability, RR [8, 17]: 99.8%
Working solution stability, RR [8, 18]: 102.6%
Stock solution stability, RR [8, 19]: 54 days: 97.5%
Stock solution stability, RR [8, 20]: 129 days: 96.7%
AUC(0-t) [9, 21]: 1.65 ng·h/mL
Cmax [9, 21]: 0.376 ng/mL
Tmax [9, 21]: 5.83 h
AUC(0-t) [9, 22]: 3.32 ng·h/mL
Cmax [9, 22]: 0.878 ng/mL
Tmax [9, 22]: 4 h
half-life [9, 23]: 4.46 h
AUC(0-t) [9, 24]: 4.63 ng·h/mL
Cmax [9, 24]: 1.15 ng/mL
Tmax [9, 24]: > 3 h
half-life ([9]; 7.5 g, t 1/2, rikkunshito 7.5 g single oral, n = 19): < 10 h
t 1/2 [9, 25]: 5.38 (3.31–8.76) h
Median t max (range) [9, 25]: 4.00 (2.00–6.00) h
Stability in blood, RR [10, 26]: 98.1%
Stability in blood, RR [10, 27]: 95.8%
